“Also recorded” adds a separate entry of the source. Bridge positions count the residues as written; N and C are the ends.
Assays:
[1] = test system: lentiviral pseudoparticles harboring VSV-G glycoprotein; type: cell-based
TMPRSS14 (Matriptase) = biological target: T1, TMPRSS14 (Matriptase) (Homo sapiens, UniProt Q9Y5Y6); test: Recombinant TMPRSS14 activity assay; type: biochemical; conditions: recombinant enzyme
T1 construct: purchased 3946
Procedure: In the next step, 50 µL of 20 µM BOC‐Gln‐Ala‐Arg‐AMC protease substrate (Bachem #4017019) in the case of TMPRSS2 and TMPRSS14 or 50 µL of 150 µM BOC‐Gln‐Arg‐Arg‐AMC (PeptaNova) in the case of TMPRSS1 was added and incubated for 2 h for TMPRSS2, or 5 mins in the case of TMPRSS1/14 at 37 °C. Fluorescence intensity was measured after 2 h at an excitation wavelength of 380 nm and emission wavelength of 460 nm in a SynergyTM H1 microplate reader (BioTek) with Gen5 3.04 software. […] Assays were performed in a total volume of 100 µL in quadruplicate wells of a 96 Nunc well plate (Thermo Scientific #10174221) with a final TMPRSS2 concentration of 20 nM. Initial velocities were measured in 50 s intervals for 15 min with excitation of 360 nm and emission of 460 nm in a SynergyTM H1 microplate reader. K m and V max were calculated from Michaelis–Menten plots using GraphPadPrism. The inhibitory constant K i was calculated from the IC50 values according to the Cheng–Prusoff equation (K i = IC50/(1 + [S]/K m)) for competitive reversible inhibitors.^[ [91] ^]

cathepsin L = biological target: T2, cathepsin L (Homo sapiens, UniProt P07711); test: Cathepsin L activity assay; type: biochemical; conditions: recombinant enzyme
T2 construct: purchased R&D 952-Cy
T2 sequence (P07711 114-333): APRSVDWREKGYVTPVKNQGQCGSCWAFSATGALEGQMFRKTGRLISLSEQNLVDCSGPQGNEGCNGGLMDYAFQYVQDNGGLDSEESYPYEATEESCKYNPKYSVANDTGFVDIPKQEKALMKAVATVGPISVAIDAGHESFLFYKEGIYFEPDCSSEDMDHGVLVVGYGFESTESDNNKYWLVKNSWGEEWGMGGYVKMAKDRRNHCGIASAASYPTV
Procedure: (§1) Cathepsin enzyme activity assays were performed as described before.^[ [42] ^] In brief, serially diluted compounds were mixed with recombinant cathepsin L (R&D #952‐Cy) in assay buffer (50 mM MES, 5 mM DTT, 1 mM EDTA, 0.005% Brij35, pH 6) or with cathepsin B from human placenta (Sigma Aldrich #C0150) in assay buffer (105.6 mM KH2PO4, 14.4 mM Na2HPO4, 1.2 mM EDTA, 0.07% Brij35, 2.4 mM L‐cysteine, pH 6). The protease‐inhibitor mixtures were incubated for 10 min at RT before the addition of the respective fluorogenic reporter substrate Z‐Leu‐Arg‐AMC (for cathepsin L; Bachem #4034611) or Z‐Arg‐Arg‐AMC (for cathepsin B; Bachem #4004789). The final concentrations were as follows: Cathepsin L 0.01 µg mL^−1, cathepsin B 1 µg mL^−1, Z‐Leu‐Arg‐AMC 40 µM or Z‐Arg‐Arg‐AMC 30 µM. Fluorescence intensity was recorded at an excitation wavelength of 380 nm and emission wavelength of 460 nm after 25 min at 37 °C (cathepsin L) or after 60 min at 40 °C (cathepsin B) in a Synergy H1 microplate reader (BioTek) with Gen 5 3.04 software.

[2] = biological target: T3, cathepsin B from human placenta (Homo sapiens, UniProt P07858); test: Cathepsin B activity assay; type: biochemical; conditions: enzyme from human placenta
T3 construct: cathepsin B from human placenta (Sigma Aldrich #C0150); purchased Sigma Aldrich C0150; host or cells: human placenta (tissue-derived)
Procedure: as §1

recombinant furin = biological target: T4, recombinant furin (Homo sapiens, UniProt P09958); test: Furin activity assay; type: biochemical
T4 construct: purchased Bachem (so in the source) 1503-SE-010
T4 sequence (P09958 108-794): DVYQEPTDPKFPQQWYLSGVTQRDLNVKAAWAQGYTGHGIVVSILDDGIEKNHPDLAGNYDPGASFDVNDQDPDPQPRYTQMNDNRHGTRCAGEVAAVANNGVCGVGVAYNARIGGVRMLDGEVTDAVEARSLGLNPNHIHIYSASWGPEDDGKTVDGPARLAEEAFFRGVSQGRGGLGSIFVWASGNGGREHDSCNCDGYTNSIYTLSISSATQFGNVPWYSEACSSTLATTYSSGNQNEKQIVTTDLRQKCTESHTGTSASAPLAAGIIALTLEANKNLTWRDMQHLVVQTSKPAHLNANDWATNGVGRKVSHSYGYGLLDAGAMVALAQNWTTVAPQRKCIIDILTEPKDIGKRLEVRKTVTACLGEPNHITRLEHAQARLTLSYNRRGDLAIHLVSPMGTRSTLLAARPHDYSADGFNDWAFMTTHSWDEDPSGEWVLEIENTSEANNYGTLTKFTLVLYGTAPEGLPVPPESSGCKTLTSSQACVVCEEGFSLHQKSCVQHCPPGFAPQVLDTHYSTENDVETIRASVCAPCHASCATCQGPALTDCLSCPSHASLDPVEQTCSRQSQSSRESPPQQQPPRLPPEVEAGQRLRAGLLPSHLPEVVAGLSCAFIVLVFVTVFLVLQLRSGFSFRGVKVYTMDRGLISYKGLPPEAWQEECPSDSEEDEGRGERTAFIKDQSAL
Procedure: Furin activity assay was conducted as described previously with slight changes.^[ [42] ^] In brief, Trypstatin was mixed with recombinant furin (Bachem #1503‐SE‐010, final concentration 1.0 ng µL^−1) in assay buffer (25 mM Tris, 1 mM CaCl2, pH 9) for 30 min at room temperature before the addition of […] ‐L‐pyroglutamyl‐modified RTKR‐ AMC substrate (Bachem #4018149) per well with a final concentration of 1 mM CaCl2 in water. Fluorescence intensity was recorded in 2 min intervals for 5 h at an excitation wavelength of 355 nm and emission wavelength of 460 nm at 37 °C in a Cytation 3 (BioTek) microplate reader. The area under the curve values were normalized to the furin control. Hexa‐D‐arginine served as inhibitor control.

recombinant ACE2 = biological target: T5, recombinant ACE2 (Homo sapiens, UniProt Q9BYF1); test: Recombinant ACE2 assay; type: biochemical
T5 construct: purchased R&D 933-ZN
T5 sequence (Q9BYF1 18-805): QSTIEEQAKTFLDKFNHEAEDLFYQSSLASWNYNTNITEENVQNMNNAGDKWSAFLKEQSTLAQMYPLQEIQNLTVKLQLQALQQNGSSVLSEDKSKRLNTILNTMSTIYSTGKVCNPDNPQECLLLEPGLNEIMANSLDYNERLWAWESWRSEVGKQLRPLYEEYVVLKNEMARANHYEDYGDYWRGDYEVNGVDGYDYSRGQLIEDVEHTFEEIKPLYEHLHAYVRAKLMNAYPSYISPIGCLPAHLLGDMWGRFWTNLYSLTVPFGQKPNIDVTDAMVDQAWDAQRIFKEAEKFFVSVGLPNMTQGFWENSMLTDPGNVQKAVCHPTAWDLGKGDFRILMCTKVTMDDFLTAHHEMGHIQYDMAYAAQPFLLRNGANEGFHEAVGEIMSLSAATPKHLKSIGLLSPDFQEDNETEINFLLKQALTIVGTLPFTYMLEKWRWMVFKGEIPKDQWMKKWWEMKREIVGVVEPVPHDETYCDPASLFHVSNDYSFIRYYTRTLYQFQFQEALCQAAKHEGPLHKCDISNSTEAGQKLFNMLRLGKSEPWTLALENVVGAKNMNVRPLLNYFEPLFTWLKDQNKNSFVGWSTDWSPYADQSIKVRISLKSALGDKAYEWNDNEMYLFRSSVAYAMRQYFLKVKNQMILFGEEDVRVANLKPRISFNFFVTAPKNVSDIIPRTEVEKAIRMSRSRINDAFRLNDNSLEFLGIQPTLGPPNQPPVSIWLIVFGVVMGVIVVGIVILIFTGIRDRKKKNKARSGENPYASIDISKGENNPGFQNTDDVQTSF
Procedure: To determine the activity of Trypstatin against ACE2, 25 µL of 0,4 µg mL^−1 recombinant ACE2 (R&D #933‐ZN) in assay buffer (75 mM Tris, 1 M NaCl, pH 7.5) was mixed with 25 µL of inhibitor for 15 min at 37 °C before addition of 50 µL of 40 µM of MCA‐YVADAPK(Dnp)‐OH substrate (R&D #ES007) and incubation for 5 min at 37 °C. Fluorescence intensity was measured after 5 min at an excitation wavelength of 320 nm and emission wavelength of 405 nm in a SynergyTM H1 microplate reader (BioTek) with Gen5 3.04 software.

SARS-CoV-2 BA.5 = type: cell-based
[3] = biological target: T6, TMPRSS2 Syrian gold hamster (Mesocricetus auratus, UniProt A0A1U8C7C8); test: Cellular hamster TMPRSS2 activity assay in transfected HEK293T cells; type: cell-based; conditions: compared with human TMPRSS2
T6 construct: encoding the respective transmembrane serine protease per well; host or cells: HEK293T
T6 sequence (A0A1U8C7C8 1-492): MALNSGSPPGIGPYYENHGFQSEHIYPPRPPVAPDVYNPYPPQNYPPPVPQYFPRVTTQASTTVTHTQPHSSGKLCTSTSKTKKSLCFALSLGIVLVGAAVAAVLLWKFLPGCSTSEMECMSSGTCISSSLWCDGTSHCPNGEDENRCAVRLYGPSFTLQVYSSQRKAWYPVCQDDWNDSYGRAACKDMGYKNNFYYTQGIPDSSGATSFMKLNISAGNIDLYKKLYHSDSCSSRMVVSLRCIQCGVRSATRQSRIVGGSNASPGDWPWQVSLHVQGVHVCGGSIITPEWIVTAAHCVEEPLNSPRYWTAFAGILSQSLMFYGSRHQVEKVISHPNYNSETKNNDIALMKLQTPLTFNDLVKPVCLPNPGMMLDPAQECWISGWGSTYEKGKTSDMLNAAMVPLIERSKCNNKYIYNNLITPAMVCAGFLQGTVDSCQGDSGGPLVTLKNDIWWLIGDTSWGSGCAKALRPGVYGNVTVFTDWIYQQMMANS
Procedure: Twenty thousand HEK293T cells were seeded in a 96‐well flat bottom plate. The next day, cells were transfected with 100 ng of an expression plasmid (Backbone: Twist Bioscience, EF1alpha mammalian expression vector) encoding the respective transmembrane serine protease per well using LT1 transfection reagent (TMPRSS2 human NCBI RefSeq: NP_005647.3; TMPRSS2 Syrian gold hamster NCBI RefSeq: XP_012971683.1; TMPRSS11D NCBI RefSeq: NP_004253.1; TMPRSS13 NCBI RefSeq: NP_001070731.1). In short, plasmid DNA was mixed in a 1:3 ratio with LT1 in a serum‐free medium and incubated for 20 min before the mixture was applied dropwise onto the cells. Sixteen hours post‐transfection, the medium was replaced by a serum‐free medium, and cells were treated with serial dilution of compounds in PBS. After 15 min of incubation at 37 °C, 100 µM of respective protease‐specific substrate (TMPRSS2: Boc‐QAR‐AMC, Bachem # 4017019; TMPRSS11D: Boc‐FSR‐AMC, Bachem # 4012340; TMPRSS13: Pyr‐RTKR‐AMC, Bachem #4018149) was added and incubated for 2 h at 37 °C. Fluorescence intensity was recorded at an excitation wavelength of 380 nm and emission wavelength of 460 nm in a Synergy H1 microplate reader (BioTek) with Gen 5 3.04 software. Values were background corrected for non‐transfected HEK293T‐cells. […]

Caco-2 cells = test: Cytotoxicity assay (CellTiter-Glo); type: cell-based, human; conditions: 48 h, ATP levels, tested concentrations
Procedure: To assess the cytotoxicity of the inhibitors used, 10 000 Caco2 cells were seeded in a 96‐well flat bottom plate. The next day, the medium was replaced and cells were treated with serial dilutions of compounds or PBS as a control. After 48 h, cell viability was assessed by measuring ATP levels in cell lysates with a commercially available kit (CellTiter‐Glo, Promega) in an Orion II microplate reader with Simplicity 4.2 software.

[4] = test system: IL-1ß, IL-6, CCL5, CXCL10, IRF1 expression in HAECs; type: cell-based, human
SARS-CoV-2 Delta = conditions: hamster, in vivo

T1 sequence (Q9Y5Y6 whole entry): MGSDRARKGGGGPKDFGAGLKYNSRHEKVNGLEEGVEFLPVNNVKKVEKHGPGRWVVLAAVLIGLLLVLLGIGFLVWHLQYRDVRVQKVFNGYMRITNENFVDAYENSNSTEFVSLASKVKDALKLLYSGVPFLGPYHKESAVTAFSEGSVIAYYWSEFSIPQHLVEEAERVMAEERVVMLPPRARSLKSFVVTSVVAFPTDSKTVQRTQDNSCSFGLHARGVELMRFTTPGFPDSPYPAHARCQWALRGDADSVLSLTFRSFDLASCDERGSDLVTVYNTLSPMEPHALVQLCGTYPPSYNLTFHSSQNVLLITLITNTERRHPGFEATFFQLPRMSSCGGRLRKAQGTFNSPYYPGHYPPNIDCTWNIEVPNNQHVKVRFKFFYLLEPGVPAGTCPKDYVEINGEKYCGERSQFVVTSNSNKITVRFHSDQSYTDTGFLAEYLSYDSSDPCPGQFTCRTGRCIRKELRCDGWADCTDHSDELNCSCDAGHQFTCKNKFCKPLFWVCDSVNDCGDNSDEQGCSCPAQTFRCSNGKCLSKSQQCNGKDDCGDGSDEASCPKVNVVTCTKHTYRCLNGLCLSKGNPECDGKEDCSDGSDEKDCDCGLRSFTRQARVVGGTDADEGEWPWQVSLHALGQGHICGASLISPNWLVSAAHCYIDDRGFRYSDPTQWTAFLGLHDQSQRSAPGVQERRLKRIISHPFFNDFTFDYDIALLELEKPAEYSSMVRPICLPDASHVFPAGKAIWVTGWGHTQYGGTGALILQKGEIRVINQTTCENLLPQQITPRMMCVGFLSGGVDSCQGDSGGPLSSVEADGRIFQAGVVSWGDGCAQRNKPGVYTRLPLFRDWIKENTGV

In the case of “VAACNLPIVRGPCRAFIQLWAFDAVKGKCVLFPYGGCQGNGNKFYSEKECREYCGVPGDGD (disulfide 4-54, 13-37, 29-50 (inferred)) [Trypstatin]”, the “effect on VSV-G-mediated pseudoparticle entry” value [1] is reported as “without affecting VSV‐G‐driven entry”, the “inhibition of TMPRSS14” value (TMPRSS14 (Matriptase)) is reported as “no effect” and the “inhibition of Cathepsin L” value (cathepsin L) is reported as “did not inhibit”. For the same sequence, the “inhibition of Cathepsin B” value [2] was “did not inhibit”, the “inhibition of Furin” value (recombinant furin) was “did not inhibit; also recorded: does not inhibit” and the “inhibition of ACE2” value (recombinant ACE2) was “did not inhibit; also recorded: does not inhibit”. For the same sequence, the “reduction of SARS-CoV-2 BA.5 replication over 72 h” value (SARS-CoV-2 BA.5) was “up to four orders of magnitude”, the “inhibition of hamster TMPRSS2” value [3] was “IC50 values similar to those for human TMPRSS2; also recorded: blocks hamster and human TMPRSS2 activity with similar efficacies” and the “cytotoxicity / cell viability” value (Caco-2 cells) was “does not influence cell viability”. The “effect on expression of inflammatory genes” value [4] was “failed to reach significance; also recorded: does not have a significant anti-inflammatory effect”, the “clinical symptoms (piloerection, weakness, fatigue, abnormal posture)” value (SARS-CoV-2 Delta) was “almost entirely absent” and the “infectious virus particles in BAL (TCID50)” value (SARS-CoV-2 Delta) was “significantly reduced”. The “side effects in hamsters” value (SARS-CoV-2 Delta) was “without observed side effects” and the “viral loads in BAL (qPCR)” value (SARS-CoV-2 Delta) was “significantly reduced”.

Source: paper PMC12224939, “Trypstatin as a Novel TMPRSS2 Inhibitor with Broad‐Spectrum Efficacy against Corona and Influenza Viruses” (Advanced Science, 2025)
